# Laboratory results as given in US8158621B2, “Methods of treating or preventing autoimmune diseases with 2,4-pyrimidinediamine compounds” (Rigel Pharmaceuticals, Inc., priority 2002, dated 2012).
# Assays:
# [1] = tested on: basophil cells (human peripheral blood); experiment: Basophil ionomycin activation: histamine release assay; assay type: cell-based; conditions: basophils, ionomycin activation, histamine release; read-out: Basophils Ionomycin Histamine IC50
# Method: (§1) The basophil activation assay was carried out using whole human peripheral blood from donors allergic to dust mites with the majority of the red blood cells removed by dextran sedimentation. Human peripheral blood was mixed 1:1 with 3% dextran T500 and RBCs were allowed to settle for 20-25min. The upper fraction was diluted with 3 volumes of D-PBS and cells were spun down for 10 min at 1500 rpm, RT. Supernatant was aspirated and cells were washed in an equal volume MT-buffer. Finally, cells were resuspended in MT-buffer containing 0.5% DMSO in the original blood volume. 80 uL cells were mixed with 20 uL compound in the presence of 0.5% DMSO, in triplicate, in a V-bottom 96-well tissue culture plate. A dose range of 8 compound concentrations was tested resulting in a 10-point dose response curve including maximum (stimulated) and minimum (unstimulated) response. […] The cells were stimulated for 30 minutes at 37° C., 5% CO2. The plate was spun for 10 min at 1500 rpm at room temperature and 80 uL the supernatant was harvested for histamine content analysis using the histamine ELISA kit supplied by Immunotech. The ELISA was performed according to supplier's instructions.
# Assays for ionomycin-induced basophil cell degranulation were carried out as described for the Basophil IgE or Dustmite Activation Assay (Section 7.5.5, supra), with the exception that following incubation with compound, cells were stimulated with 20 μl of 2 μM ionomycin.
# [2] = tested on: Human Jurkat T-cells (clone N); experiment: Jurkat T-cell activation (anti-TCR, CD69 upregulation); assay type: cell-based
# Outline: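 Readout is CD69 upregulation by flow cytometry (anti-CD69-APC, 20 min at 4 °C) after 20 h anti-TCR (C305, 500 ng/ml) stimulation at 37 °C.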
# [3] = tested on: basophil cells (human peripheral blood); experiment: Basophil anti-IgE activation: histamine release assay; assay type: cell-based; conditions: basophils, anti-IgE activation, histamine release; read-out: Basophils anti-IgE Histamine IC50
# Method: as §1
# [4] = tested on: cultured human mast cells (CHMC); experiment: CHMC high cell density IgE activation: tryptase; assay type: cell-based
# Method: (§2) After sensitizing, cells are counted, pelleted (1000 rpm, 5-10 minutes), and resuspended at 1-2 ×10^6 cells/ml in MT buffer. Add 100 ul of cell suspension to each well and 100 ul of compound dilutions. The final vehicle concentration is 0.5% DMSO. Incubate at 37° C. (5% CO2) for 1 hour. After 1 hour of compound treatment, stimulate cells with 6× anti-IgE. Mix wells with the cells and allow plates to incubate at 37° C. (5% CO2) for one hour. After 1 hour incubation, pellet cells (10 minutes, 1000 RPM) and collect 200 ul per well of the supernatant, being careful not to disturb pellet. Place the supernatant plate on ice. During the 7-hour step (see next) perform tryptase assay on supernatant that had been diluted 1:500. Resuspend cell pellet in 240 ul of CM media containing 0.5% DMSO and corresponding concentration of compound. Incubate CHMC cells for 7 hours at 37° C. (5% CO2). After incubation, pellet cells (1000 RPM, 10 minutes) and collect 225 ul per well and place in −80° C. until ready to perform ELISAS. ELISAS are performed on appropriately diluted samples (determined empirically for each donor cell population so that the sample measurement falls within the standard curve) following the supplier's instructions.
# [5] = tested on: cultured human mast cells (CHMC); experiment: CHMC low cell density IgE activation: tryptase assay; assay type: cell-based; conditions: Low Density CHMC, anti-IgE activation, tryptase release; read-out: CHMC anti-IgE Tryptase IC50
# Outline: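 Read-out: tryptase released into supernatant, measured by substrate turnover over 30 min at RT. Low-density CHMC (1000-1500 cells/well, per donor degranulation activity) in MT buffer, 1 hr at 37° C, then anti-IgE challenge 30 min at 37° C.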
# [6] = tested on: cultured human mast cells (CHMC); experiment: CHMC low cell density ionomycin activation: tryptase assay; assay type: cell-based; conditions: Low Density CHMC, ionomycin activation, tryptase release; read-out: CHMC Ionomycin Tryptase IC50
# [7] = tested on: cultured human mast cells (CHMC); experiment: CHMC high cell density IgE activation: hexos; assay type: cell-based
# Method: as §2
# Add 50 uL of BMMC cell supernatant (see above) to the hexoseaminidase substrate, place at 37° C. for 30 minutes and read the plate at 5, 10, 15, and 30 minutes on a spectrophotometer.
# [8] = tested on: cultured human mast cells (CHMC); experiment: CHMC high cell density IgE activation: LTC4; assay type: cell-based
# Method: as §2
# Jurkat cells = experiment: Jurkat toxicity, Cell Titer Glo assay; assay type: cell-based, human
# Method: Seed 50 μl cells (1×10^6/ml) into each well containing 50 μl compound. […] Shake plates for 1 minute to mix cells and compound. Incubate plates at 37° C. […] Next day, harvest 50 μl cells from each well, add to 50 μl Cell Titer Glo reagent ([…]). Shake plates for 1 minute. Read on luminometer.
# [9] = tested on: cultured human mast cells (CHMC); experiment: CHMC high cell density IgE activation: histamine; assay type: cell-based
# Method: as §2
# [10] = tested on: cultured human mast cells (CHMC); experiment: CHMC high cell density IgE activation: TNFalpha; assay type: cell-based; conditions: read-out: CHMC high density TNF-alpha
# Method: as §2
# [11] = tested on: cultured human mast cells (CHMC); experiment: CHMC low cell density IgE activation: LTC4 assay; assay type: cell-based; conditions: anti-IgE activation, LTC4 release
# Method: Pellet CHMC cells (980 rpm, 10 min) and resuspend in pre-warmed MT. Add 65 ul of cells to each 96-well plate. Depending on the degranulation activity for each particular CHMC donor, load 1000-1500 cells/well. Mix four times followed by a 1 hr incubation at 37° C. […] Stimulate cells by adding 25 ul of 6× anti-IgE solution to the appropriate plates. Add 25 ul MT to un-stimulated control wells. Mix twice following addition of the anti-IgE. Incubate at 37° C. for 30 minutes. […] Spin plates at 1000 rpm for 10 min to pellet cells. Transfer 25 ul of supernatant to a 96-well black bottom plate and add 100 ul of freshly diluted tryptase substrate solution to each well. Incubate plates at room temperature for 30 min.
# Leukotriene C4 (LTC4) is also quantified using an ELISA kit on appropriately diluted supernatant samples (determined empirically for each donor cell population so that the sample measurement falls within the standard curve) following the supplier's instructions.
# [12] = tested on: FcγRI-mediated degranulation; experiment: FcγRI-mediated degranulation (anti-human IgG Fab activation); assay type: cell-based; conditions: cells not primed with IgE, activated with rabbit anti-human IgG Fab fragment
# [13] = Mouse Reverse Passive Arthus reaction (RPA reaction); assay type: in vivo, C57BL/6 mice; conditions: oral, 100 mg/kg
# Method: In this model system, test compounds are administered at several timepoints prior to administration of Abs and Ags. A solution of rabbit anti-OVA IgG (50 μg in 25 μl/mouse) is injected intradermally, and immediately following is an intravenous injection of chicken egg albumin (20 mg/kg of body weight) in a solution containing 1% Evans blue dye. The degree of edema and hemorrhage is measured in the dorsal skin of C57BL/6 mice using the Evan's Blue dye as an indicator of local tissue damage. Purified polyclonal rabbit IgG is used as a control.
# Pretreatment time, in which the test compounds are administered prior to Ab/Ag challenge, depends on the pharmacokinetic (PK) properties of each individual compound. Four hours after induction of Arthus reaction, mice are euthanized, and tissues are harvested for assessment of edema.
# Syk kinase = target: T1, Syk kinase (Homo sapiens, UniProt P43405); experiment: Syk kinase biochemical fluorescence polarization assay; conditions: isolated Syk kinase, fluorescence polarization, 4 uM ATP
# T1 construct: purchased Upstate, Lake Placid NY
# Primary human B-cells = experiment: Primary B-cell activation (α-IgM, CD69 upregulation); assay type: cell-based; conditions: read-out: 1° B-Cell CD69 IC50
# Method: Primary human B-cells were isolated from buffy coat, the white cell layer that forms between the red cells and the […] when anti-coagulated blood is centrifuged, or from fresh blood using CD19-Dynal® beads and a FACS. Buffy coat was obtained from the Stanford Medical School Blood Centre, prepared on the same day by the blood bank, stored and transported cold (with ice). The buffy coat (approx 35 mL) was placed in a 500 mL conical sterile centrifuge pot and cooled on ice, then diluted with cold PBS containing 0.2% BSA (Sigma: A7638) and sodium citrate (0.1%, Sigma: S-5570) (P—B—C) to a total volume of 200 mL and mixed gently. Fresh blood was collected from donors in 10 mL vacutainers containing heparin (1 vacutainer collects approximately 8.5 mL blood). The blood was cooled on ice, transferred into 50 mL falcon tubes (20 mL/tube) or a 500 mL conical sterile centrifuge pot, and diluted with an equal volume P—B—C.
# 25 mL diluted blood or buffy coat was layered onto 15 mL cold ficoll and placed back on ice. The ficoll layered blood was centrifuged (Beckman GS-6R) for 45 minutes at 2000 rpm, 4° C. to separate the Peripheral Blood Mononuclear Cells (PBMC) from the Red Blood Cells (RBC) and granulocytes. The top aqueous layer was then aspirated until 1 inch above the PBMC layer. The PBMCs were transferred from every 2 ficoll tubes into one clean 50 mL falcon tube (=approx 10 mL/tube). The transferred PBMCs were diluted 5× with icecold PBS with 0.2% BSA (P—B) and centrifuged for 20 min at 1400 rpm and 4° C. The supernatant (this may be cloudy) was then aspirated and the PBMCs resuspended into 25 mL P—B and the cells counted (using a 1:5 dilution) and kept on ice.
# The cells were then positively selected using anti-CD 19 antibody coupled to magnetic beads (Dynal®) as per manufacturer's instructions. The approximate required amount of CD19-Dynal® beads (CD19-coated dyna beads M-450 (pabB), Dynal®) was calculated by estimating the number of B-cells as 5% of PBMCs counted and adding approximately10 beads per cell from the bead stock (4×10^8 beads/mL). The CD19-Dynal® beads were washed 2× in P—B in a 5 mL tube using the Dynal® magnet, then added into the suspended PBMCs. This mixture was then passed through the Dynal® magnet and washed several times to separate the bead-bound cells.
# After separation, the beads and antibody were removed using Dynal® CD19-DETACHaBEAD® for 45 min at 30° C. Yield is typically 2×10^7 B-cells per buffy coat. B-cells were washed and resuspended as 1E6 cells/mL in RPMI1640+10% FBS+Penicillin/[…]+1 ng/mL IFNα8. Cells were rested overnight at 37° C. and 5% CO2.
# The following day, cells were washed and resuspended in RPMI+2.5% FBS to 1×10^6 cells/mL. Cells were then aliquoted into a V-bottom 96-well plate (Corning) at 65 uL cells per well. By robot, 65 uL of a 2× compound was added to the cells with final concentration of DMSO at 0.2%, and incubated for 1 hr at 37° C. Cells were then stimulated with 20 uL 7.5× α-IgM from Jackson laboratories (final 5 ug/mL) for 24 hrs. At day 3, the cells were spun down and stained for CD69 and analyzed by FACS gated on the live cells (by light scatter).
# Varied concentrations of compound were compared to solvent only to determine the inhibition of B-cell activation IC50 of each compound.
structure (smiles),measurement,setting,value
Fc1cnc(Nc2ccc3c(c2)OC(F)(F)C(F)(F)O3)nc1Nc1ccc2c(c1)OC(F)(F)C(F)(F)O2 [Compound R926037],IC50,[1],> 10 µM
same,IC50,[2],> 10 µM
same,IC50,[3],> 10 µM
CNC(=O)c1cc2cc(Nc3ncc(F)c(Nc4cccc(O)c4)n3)ccc2o1 [Compound R926493],IC50,[4],1.09 µM
same,IC50,[5],0.25 µM
same,IC50,[6],9.18 µM
same,IC50,[7],0.889 µM
same,IC50,[8],0.474 µM
same,IC50,Jurkat cells,> 4.33 µM
same,IC50,[9],1.32 µM
same,IC50,[10],> 2 µM
same,IC50,[11],0.078 µM
same,IC50,[2],3.52 µM
Fc1cnc(Nc2ccc3cn[nH]c3c2)nc1Nc1ccc(Cl)c(Cl)c1 [Compound R935372],inhibition of FcγRI-mediated degranulation,[12],inhibit FcγRI-mediated degranulation
same,% inhibition to vehicle control Edema Size ± SEM,[13]; pretreatment time 0.5 hrs,−0.6 ± 6.2%
same,Plasma Concentration ± SEM (ng/ml) Exposure = Pretreatment Time + 4 hours,[13]; pretreatment time 0.5 hrs + 4 hours,0.6 ± 1 ng/mL
same,% inhibition to vehicle control Edema Size ± SEM,[13]; pretreatment time 1 hrs,23.5 ± 7.4%
same,Plasma Concentration ± SEM (ng/ml) Exposure = Pretreatment Time + 4 hours,[13]; pretreatment time 1 hrs + 4 hours,4.2 ± 4 ng/mL
same,% inhibition to vehicle control Edema Size ± SEM,[13]; pretreatment time 2 hrs,−4.4 ± 17.7%
same,Plasma Concentration ± SEM (ng/ml) Exposure = Pretreatment Time + 4 hours,[13]; pretreatment time 2 hrs + 4 hours,52.65 ± 39 ng/mL
same,IC50,Syk kinase,0.205 µM
same,IC50,[2],30.7 µM
O=C1Nc2cc(Nc3ncc(F)c(Nc4ccc5c(c4)NC(=O)C(F)(F)O5)n3)ccc2OC1(F)F [Compound R940352],inhibition of FcγRI-mediated degranulation,[12],inhibit FcγRI-mediated degranulation
same,IC50,Primary human B-cells,0.876 µM
same,IC50,Syk kinase,0.13 µM
same,IC50,[2],3.53 µM
